Target: T1, KDM4B (Homo sapiens, UniProt O94953)
T1 sequence (O94953 1-500): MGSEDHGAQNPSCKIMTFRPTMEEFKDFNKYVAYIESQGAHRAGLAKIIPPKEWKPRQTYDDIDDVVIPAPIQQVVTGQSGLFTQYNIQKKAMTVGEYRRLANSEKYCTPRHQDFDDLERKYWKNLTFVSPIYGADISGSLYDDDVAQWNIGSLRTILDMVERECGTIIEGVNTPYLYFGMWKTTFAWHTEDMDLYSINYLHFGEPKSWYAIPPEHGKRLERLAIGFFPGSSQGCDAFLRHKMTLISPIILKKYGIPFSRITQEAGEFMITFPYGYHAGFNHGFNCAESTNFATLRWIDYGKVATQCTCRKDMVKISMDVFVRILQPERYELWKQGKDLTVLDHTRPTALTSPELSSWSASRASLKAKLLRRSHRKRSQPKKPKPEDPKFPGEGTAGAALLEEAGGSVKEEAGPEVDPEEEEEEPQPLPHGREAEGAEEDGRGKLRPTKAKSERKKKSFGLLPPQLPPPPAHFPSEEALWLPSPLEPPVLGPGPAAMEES
Test: 1H-15N TROSY-HSQC NMR shifts
Assay type: biochemical

- IC50: ~10 nM
SMILES: O=C(NCCCc1ccccc1)c1cccc(-c2cc(O)c3ncccc3c2)c1 [B3, NCGC00244536]

Source: PMC4578295 (Chemistry & biology, 2015)
